Consider four compounds from publication PMC12584615, “Degradation of 2,4-D by plant growth-promoting Cupriavidus sp. DSPFs: role in mitigating herbicide toxicity in soil and enhancing crop production” (Microbiology Spectrum, 2025).

Test [1] concerns T1, 2,4-dichlorophenol-6-monooxygenase (24DCPM).
T1 construct: gene tfdB; homotetramer ~255 kDa, subunit ~65 kDa
The test can be described thus: spectrophotometric NAD(P)H consumption at […] nm, Michaelis-Menten fit. Format: biochemical, Cupriavidus sp. DSPFs. To be noted: 50 µM 2,4-dichlorophenol; phosphate buffer 50 mM pH 7.5; 6.25 µM FAD; read-out: Km (μM) / I^a.

Test [2] has as its target 2,4-dichlorophenol-6-monooxygenase from Cupriavidus sp. strain DSPFs (Cupriavidus sp. strain DSPFs). The test can be described thus: SEC; ENrich SEC 650 column (24 mL) in 50 mM potassium phosphate buffer pH 7.5, 4°C; calibrated with mass markers from 12.4 to 669 kDa; native mass from log(mol mass) versus Ve/V0, compared with the subunit mass from SDS-PAGE. For orientation: In gel filtration, larger molecules generally elute earlier.

Test [3] addresses T1, 2,4-dichlorophenol-6-monooxygenase (24DCPM). The test can be described thus: spectrophotometric NAD(P)H consumption at […] nm, uncompetitive substrate inhibition fit. Format: biochemical, Cupriavidus sp. DSPFs. To be noted: substrate inhibition constant; 200 µM NADH; phosphate buffer 50 mM pH 7.5; 6.25 µM FAD.
Test [4] concerns T1, 2,4-dichlorophenol-6-monooxygenase (24DCPM). The description is as above. Format: biochemical, Cupriavidus sp. DSPFs. To be noted: 200 µM NADH; phosphate buffer 50 mM pH 7.5; 6.25 µM FAD; read-out: Km (μM) / I^a.

As to `NC(=O)C1=CN([C@@H]2O[C@H](COP(=O)(O)OP(=O)(O)OC[C@H]3O[C@@H](n4cnc5c(N)ncnc54)[C@H](OP(=O)(O)O)[C@@H]3O)[C@@H](O)[C@H]2O)C=CC1` [NADPH], the Km in test [1] turned out to be 46.8 ± 6 µM. By stoichiometry N is commonly meant the number of molecules, sites or subunits per partner or assembly. As to “2,4-dichlorophenol-6-monooxygenase from Cupriavidus sp. strain DSPFs (enzyme)”, the stoichiometry N in test [2] stood at 4. Turning to `Oc1ccc(Cl)cc1Cl` [2,4-DCP, 2,4-dichlorophenol], in test [3], the “Ki (μM) / I” value is reported as 374 ± 80 µM. Also, in test [4], the Km was 3.1 ± 0.8 µM. Consider `NC(=O)C1=CN([C@@H]2O[C@H](COP(=O)(O)OP(=O)(O)OC[C@H]3O[C@@H](n4cnc5c(N)ncnc54)[C@H](O)[C@@H]3O)[C@@H](O)[C@H]2O)C=CC1` [NADH], for which the Km in test [1] came out at 205 ± 47 µM.
